Assay results taken from patent publication US12226400B2, “Neuroprotective disruption of Kv2.1/syntaxin interaction by small molecules” (UNIVERSITY OF PITTSBURGH-OF THE COMMONWEALTH SYSTEM OF …, priority 2018, dated 2025).

Columns and labels:
[1] = tested on: delayed rectifier K+ currents (Kv2.1-mediated) in rat cortical culture neurons; assay: Whole-cell patch clamp of delayed rectifier K+ currents after TBOA; format: cell-based; settings: Cpd5 incubation alone, 5 hours total
Protocol: Cortical culture electrophysiology. Whole-cell patch-clamp experiments were performed on rat cortical culture neurons prepared as described in the LDH toxicity experiments. The TBOA treatment was reduced in severity in this experiment to limit extensive cell injury that would prevent adequate patch clamp recordings. Prior to recording, coverslips were treated with 50 μM TBOA in MHB for 2 hr. The treatment was terminated with 3×MHB washes and transferring the coverslip to a separate well containing MHB to rest for 2 hr prior to electrophysiology recordings and to allow for the expression of enhanced currents. For cpd5-treated groups, cells were pre-incubated for 1 hr in 10 μM cpd5 prior to the addition of TBOA. Cpd5 was also present during the TBOA and the post-TBOA incubation phases.
Recordings were carried out using 1.5 mm diameter borosilicate glass electrodes (Sutter Instruments) made from a horizontal pipette puller at 5-7 MΩ. The internal solution contains (in mM): 100 K-gluconate, 10 KCl, 1 MgCl2, 1 CaCl2, 10 HEPES, 11 EGTA, 2.2 ATP, 0.33 GTP. The internal solution was further adjusted to pH 7.2 and to 280 mOsm with the addition of sucrose. The pH adjusted (7.2) external solution was composed of the following (in mM): 115 NaCl, 2.5 KCl, 2.0 MgCl2, 10 HEPES, 10 D-glucose, and 0.25 μM TTX. […]

NMDA receptors = assay: Fura-2 ratiometric Ca2+ imaging during NMDA exposure; format: cell-based, rat; settings: 10 μM cpd5, NMDA 30 μM with 10 μM glycine; ±SEM
Protocol: Intracellular Ca^2+ measurements were performed on the same cortical culture preparations as above, but with 20 DIV cells plated on MatTek glass-bottom 35 mm culture dishes. At this developmental stage, neurons robustly express both GluN2A and GluN2B subunits of the NMDA receptor. Neurons were incubated with the fluorescent Ca^2+ indicator Fura-2 AM ester (5 μM; Invitrogen) with 0.02% Pluronic F-127 (Invitrogen) for 1 h at 37° C. Culture dishes were then mounted on an inverted microscope stage (Olympus) and continuously perfused with a 10 mM HEPES-buffered normal salt solution. Perfusion rate (5 ml/min) was controlled with a gravity flow and a rapid-switching local perfusion system (Warner Instruments). […] A ratio of fluorescence emission (F) at 510 nm in response to excitations at 340 and 380 nm was acquired at 1 Hz (Fambda DG-4 and 10-B SmartShutter, Sutter Instruments) via camera (ORCAER, Hamamatsu) and saved to a computer using HCImage (Hamamatsu). Baseline Ca^2+ signals were recorded for 2 min before the first application of NMDA (30 μM plus 10 μM glycine) with or without 10 μM cpd5 (Cat #MolPort-009-741-732, Molport). […] Peak increases in intracellular calcium concentration were measured by calculating F/Fo (F, peak fluorescence; Fo, average signal across 2 min baseline period). The area under the response for the first 15 min of NMDA application was also calculated.

[2] = target: syntaxin 1A / Kv2.1 peptides containing the C1aB region (Homo sapiens, UniProt Q16623); assay: Peptide spot array far-Western assay of syntaxin binding to Kv2.1 C1a peptides; set-up: species or system rat
Chain of syntaxin 1A / Kv2.1 peptides containing the C1aB region (Q16623 whole entry, species assumed, the tested form may be a part): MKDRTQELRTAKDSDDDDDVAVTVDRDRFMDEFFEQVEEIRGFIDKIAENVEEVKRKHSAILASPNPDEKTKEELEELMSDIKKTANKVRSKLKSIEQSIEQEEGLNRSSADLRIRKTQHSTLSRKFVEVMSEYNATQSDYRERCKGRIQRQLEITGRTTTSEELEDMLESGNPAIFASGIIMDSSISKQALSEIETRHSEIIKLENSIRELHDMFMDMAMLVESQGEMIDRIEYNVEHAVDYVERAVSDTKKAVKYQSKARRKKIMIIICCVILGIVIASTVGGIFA
Text: Peptide spot array and far-Western assay. Peptide spot arrays (15 mers) spanning the proximal C-terminus residues 451-540 of rat Kv2.1 were constructed using the Spots-synthesis method. Standard 9-fluorenylmethoxy carbonyl (Fmoc) chemistry was used to synthesize the peptides and spot them onto nitrocellulose membranes prederivatized with a polyethylene glycerol spacer (Intavis). Fmoc protected and activated amino acids were spotted in quadruplicates on 20-30 arrays on 75 by 25 mm membranes using an Intavis MultiPep robot. The nitrocellulose membrane containing the immobilized peptides were rehydrated in Tris-buffered 0.1% Tween 20 (TBST) for 10 min, and then blocked for 1 h at room temperature (RT) with gentle shaking in TBST containing 5% (w/v) nonfat dry milk and then incubated with enriched STX1A protein containing the indicated concentrations of cpd5 for 1 h at RT with gentle shaking. Next, the membrane was incubated in primary antibody for syntaxin 1A (Millipore, catalog #AB5820-50UL, RRID:AB_2216165) for 2 h at RT with gentle shaking, followed by washing with TBST. Finally, the membrane was incubated in secondary antibody (goat anti-rabbit DyLight 800, catalog #355571, Thermo Fisher Scientific) for 45 min, washed for 3 times 5 min in TBST, and visualized by infrared fluorescence (Li-Cor). Similar procedures were followed for the alanine scan study with 9-mers.

With `COc1ccc(CNC(=O)Nc2cccc(-c3nc4ccccc4s3)c2)cc1OC` [cpd5, 3-[3-(1,3-benzothiazol-2-yl)phenyl]-1-[(3,4-dimethoxyphenyl)methyl]urea] as the molecule, how does the “basal K+ current densities” value [1] read?
Its value is “no significant effects”.

What about the “NMDA-induced Ca2+ response, AUC treated” value (NMDA receptors) of the same molecule?
The value was 104.67±1.98 % Control.

And the “NMDA-induced Ca2+ response, F-peak treated” value (NMDA receptors)?
The value was 101.26±1.47 % Control.

And the “reduction of Kv2.1 peptides binding to syntaxin at peak values” ([2]; Cpd5 100 μM)?
The value was “up to 60%”.

And the IC50 ([2]; percent inhibition compared to 0.1% DMSO, variable slope fit, read-out: IC50 for inhibition of syntaxin binding to peptides 22-28 (full C1aB domain) of the peptide array)?
The IC50 was 5.5 µM.
